Assay results reported in publication PMC10342533, “Novel Tetrazole Derivatives Targeting Tubulin Endowed with Antiproliferative Activity against Glioblastoma Cells” (International Journal of Molecular Sciences, 2023).
In brackets after ≈: the same amount, converted by molar mass. Several values for one entry are separate records, joined by “and”; a condition that tells them apart may be missing. Equal entries are not always repeated.

Key:
U87 MG cells = test: Cell cycle analysis by flow cytometry (PI), U87 MG; format: cell-based, human; details: 100 nM
Experimental: (§1) To assess how tubulin polymerization inhibition and the effects on the microtubule network affect the cell cycle, flow cytometry experiments were performed on HeLa, MCF7, and U87 MG cells 24, 48, and 72 h after treatments with compounds 10, 12, and 14 at 100 nM using propidium iodide (PI) for DNA staining and untreated cells as the negative control.
(§2) HeLa, MCF7, or U87 MG cells were seeded in 6-well plates (8·10^4 cells/mL, 2 mL/well) and incubated in complete DMEM Medium (see above) at 37 °C and 5% CO2 atmosphere for 24 h. Then, the cells were treated with selected compounds (10, 12, or 14) at 100 nM, and untreated cells were used as negative controls. Cells were collected 24, 48, or 72 h following treatment and fixed overnight in ethanol/PBS (7:3) at 4 °C. After two washes with PBS, cells were suspended in PBS and incubated in darkness overnight with 0.2 mg/mL RNase A (Sigma-Aldrich, St. Louis, MO, USA), 50 µg/mL propidium iodide (Sigma-Aldrich, St. Louis, MO, USA), and Triton 10x at room temperature. A BD Accuri™ C6 Plus Flow Cytometer (BD Biosciences, Franklin Lakes, NJ, USA) cytometer was used to analyze the samples, and BD Accuri™ C6 Software (version 1.0.264.21) was used for data analysis.

[1] = system: microtubule network of MCF7 cells; test: Immunofluorescence confocal microscopy of microtubule network, MCF7; format: cell-based, human; details: MCF7, 24 h, 100 nM, α-tubulin immunofluorescence
Experimental: To elucidate if the interaction of the compounds with tubulin inferred from the in vitro TPI experiments has consequences on cellular microtubules, we studied the effect of representative compounds on the microtubule network of HeLa, MCF7, and U87 MG cells 24 h after treatment via the use of immunofluorescence confocal microscopy through α-tubulin and nuclei labeling.
HeLa, MCF7, and U87 MG cells (8·10^4 cells/mL) were grown on 0.01% poly-L-lysine pre-coated square glass coverslips (22 mm^2), deposited on 6-well plates (1 coverslip/well), and incubated in complete DMEM medium (see above) at 37 °C and 5% CO2 atmosphere for 24 h. Then, the cells were incubated for 24 h in the presence or absence (negative controls) of selected compounds (10, 12, or 14) at 100 nM. After drug treatment incubation, medium was removed, and coverslips were washed three times with PBS, fixed with 4% formaldehyde in PBS for 10 min, permeabilized with 0.5% Triton X-100, (Sigma-Aldrich, St. Louis, MO, USA) in PBS for 90 s at 4 °C, blocked with 10% BSA in PBS for 30 min, and washed with PBS four times. The coverslips were incubated for 1 h with anti-α-tubulin mouse monoclonal antibody (Sigma-Aldrich, St. Louis, MO, USA), diluted 1:200 in PBS containing 3% BSA, washed four times with PBS, and then incubated in darkness with the fluorescent secondary antibody Alexa Fluor 488 goat anti-mouse IgG (Molecular Probes, Invitrogen, Eugenen, OR, USA) and diluted 1:400 in PBS containing 1% BSA for 1.5 h. The coverslips were washed four times with PBS, and a drop of ProLong™ Gold Antifade Mountant containing DAPI (ThermoFisher, Waltham, MA, USA) was added for cell nuclei staining. The samples were analyzed via confocal microscopy, which was performed by using a LEICA SP5 microscope DMI-6000V model coupled to a LEICA LAS AF software computer.

[2] = system: HeLa (cervix epithelioid carcinoma); test: Cell growth inhibition, MTT assay, HeLa; format: cell-based; details: Homo sapiens
Experimental: (§3) The ability of the synthesized compounds to inhibit the cell proliferation of human cancer cell lines was assayed by measuring cell viability through the use of the MTT method 72 h after treatment. For this purpose, representative cell lines of the most frequent kinds of cancer were selected, including the following: HeLa (cervix epithelioid carcinoma), MCF7 (breast adenocarcinoma), U87 MG (glioblastoma), T98G (temozolomide resistant glioblastoma), HepG2 (hepatocellular carcinoma), HCT8 (colorectal carcinoma), and HT-29 (colon adenocarcinoma).
(§4) The cell lines were obtained from ATTC (Manassas, VA, USA). […] The cells were periodically tested for Mycoplasma infection by using a MycoAlert kit (Lonza, Norwest, Australia), and only Mycoplasma-free cells were used in the experiments.
(§5) Then, every compound was added (10 µL/well) to a final concentration of 10 µM. Untreated cells were used as negative controls. The antiproliferative activity of compounds was measured 72 h after drug exposure through the MTT assay. […] For this purpose, compounds were used at different concentrations, ranging from 10^−10 to 10^−2 M. Measurements were performed in triplicate, and each experiment was repeated three times. The IC50 values were determined using Origin software (version 9.6, OriginLab, Washington, DC, USA).

[3] = system: HCT8 (colorectal carcinoma); test: Cell growth inhibition, MTT assay, HCT8; format: cell-based; details: Homo sapiens
Experimental: as §3, §4, §5

MCF7 cells = test: Cell cycle analysis by flow cytometry (PI), MCF7; format: cell-based, human; details: 100 nM
Experimental: as §1, §2

[4] = Aqueous solubility, shake-flask method, phosphate buffer pH 7.4; format: physicochemical; details: thermodynamic from solid, phosphate buffer pH 7.4, shake-flask, mean ± SD of three experiments
Experimental: The aqueous solubility of tetrazole derivatives was determined by the shaking flask methodology in phosphate buffer at pH 7.4, microfiltration, and quantification of the saturated solutions via UV spectroscopy. […] The introduction of polar groups on the 3-indole position was favorable since the most soluble compounds were the oximes 16–19 (38–53 µg/mL), followed by the carbaldehyde series 12–15 (33–45 µg/mL), and the carbonitrile derivatives (25–40 µg/mL), whereas the unsubstituted indoles 8–11 were the least soluble series (19–35 µg/mL).
The aqueous solubility of the compounds was determined using the saturation shake-flask method. First, calibration lines at the maximum wavelength of absorbance were determined for each compound. Then, 5 mg of each compound was suspended in 500 µL of pH 7.4 buffer, and the resulting mixture was shaken for 72 h at room temperature and filtrated over a […] filter to remove the insoluble fraction. The concentration of the compound in the supernatant (saturated solution) was determined by measuring UV absorbance at the maximum wavelength of absorbance and interpolation in the calibration line. A Helios Alfa Spectrophotometer was used for the UV measurements. The aqueous solubility values are given as the average of three independent experiments.

[5] = HCT-8, 72 h after drug exposure

| SMILES | G0/G1 population (U87 MG cells; 24 h) [% Cells] | G2/M population (U87 MG cells; 24 h) [% Cells] | S population (U87 MG cells; 24 h) [% Cells] | SubG0/G1 population (U87 MG cells; 24 h) [% Cells] | G0/G1 population (U87 MG cells; 48 h) [% Cells] | G2/M population (U87 MG cells; 48 h) [% Cells] | S population (U87 MG cells; 48 h) [% Cells] | SubG0/G1 population (U87 MG cells; 48 h) [% Cells] | G0/G1 population (U87 MG cells; 72 h) [% Cells] | G2/M population (U87 MG cells; 72 h) [% Cells] | S population (U87 MG cells; 72 h) [% Cells] | effect on microtubule network [1] | IC50 ([2]; 72 h after drug exposure) [nM] | IC50 ([2]; mean ± SD, Table S1) [nM] | IC50 [3, 5] [nM] | G0/G1 population (MCF7 cells; MCF7, 24 h) [% Cells] | G2/M population (MCF7 cells; MCF7, 24 h) [% Cells] | S population (MCF7 cells; MCF7, 24 h) [% Cells] | SubG0/G1 population (MCF7 cells; MCF7, 24 h) [% Cells] | G0/G1 population (MCF7 cells; MCF7, 48 h) [% Cells] | other results |
| --- | --- | --- | --- | --- | --- | --- | --- | --- | --- | --- | --- | --- | --- | --- | --- | --- | --- | --- | --- | --- | --- |
| CSc1cc(-c2nnnn2-c2ccc3c(c2)c(C=O)cn3C)cc(Cl)n1 [Compound 14, 5-(5-(2-chloro-6-(methylsulfanyl)pyridin-4-yl)-1H-tetrazol-1-yl)-1-methyl-1H-indole-3-carbaldehyde] | 23.7 | 41.3 | 8.5 | 27.2 | 12.5 | 32.1 | 10.6 | 45.4 | 11.1 | 9.6 | 6.9 | severe microtubule network disruption | 24 | 24.2 ± 0.1 | 29 | 22.7 | 66.0 | 5.9 | 5.2 | 16.8 | IC50 ([3]; HCT-8, mean ± SD, Table S1): 29.4 ± 0.2 nM; G2/M population (MCF7 cells; MCF7, 48 h): 58.4 % Cells; S population (MCF7 cells; MCF7, 48 h): 6.9 % Cells; SubG0/G1 population (MCF7 cells; MCF7, 48 h): 17.9 % Cells; G0/G1 population (MCF7 cells; MCF7, 72 h): 19.1 % Cells; G2/M population (MCF7 cells; MCF7, 72 h): 38.7 % Cells; S population (MCF7 cells; MCF7, 72 h): 8.1 % Cells; SubG0/G1 population (MCF7 cells; MCF7, 72 h): 34 % Cells and 34.6 % Cells; solubility at 72 h [4]: 36.9 ± 0.3 µg/mL (≈ 95.9 µM) |
| CSc1cc(-c2nnnn2-c2ccc3c(ccn3C)c2)cc(Cl)n1 [Compound 10, 5-(5-(2-chloro-6-(methylsulfanyl)pyridin-4-yl)-1H-tetrazol-1-yl)-1-methyl-1H-indole] | 21.1 | 47.8 | 8.3 | 23.5 | 11.0 | 31.6 | 9.0 | 49.2 | 10.5 | 17.0 | 2.9 | severe microtubule network disruption | 39 | 39.3 ± 0.2 | 40 | 22.5 | 65.8 | 3.9 | 7.7 | 16.9 | G2/M population (MCF7 cells; MCF7, 48 h): 58.1 % Cells; S population (MCF7 cells; MCF7, 48 h): 4.6 % Cells; SubG0/G1 population (MCF7 cells; MCF7, 48 h): 20.4 % Cells; G0/G1 population (MCF7 cells; MCF7, 72 h): 13.7 % Cells; G2/M population (MCF7 cells; MCF7, 72 h): 54.8 % Cells; S population (MCF7 cells; MCF7, 72 h): 4.4 % Cells; SubG0/G1 population (MCF7 cells; MCF7, 72 h): 27 % Cells and 27.2 % Cells; solubility at 72 h [4]: 26.1 ± 0.2 µg/mL (≈ 73.1 µM) |
| Cn1cc(C=O)c2cc(-n3nnnc3-c3cc(Cl)nc(Cl)c3)ccc21 [Compound 12, 5-(5-(2,6-dichloropyridin-4-yl)-1H-tetrazol-1-yl)-1-methyl-1H-indole-3-carbaldehyde] | 27.3 | 37.8 | 9.6 | 26.1 | 11.9 | 27.4 | 10.3 | 51.1 | 12.2 | 10.0 | 7.8 | severe microtubule network disruption | 36 | 36.4 ± 0.4 | 40 | 19.4 | 68.6 | 7.0 | 5.2 | 16.4 | IC50 ([3]; HCT-8, mean ± SD, Table S1): 40.1 ± 0.3 nM; G2/M population (MCF7 cells; MCF7, 48 h): 62.9 % Cells; S population (MCF7 cells; MCF7, 48 h): 7.9 % Cells; SubG0/G1 population (MCF7 cells; MCF7, 48 h): 13.1 % Cells; G0/G1 population (MCF7 cells; MCF7, 72 h): 15.0 % Cells; G2/M population (MCF7 cells; MCF7, 72 h): 59.1 % Cells; S population (MCF7 cells; MCF7, 72 h): 10.8 % Cells; SubG0/G1 population (MCF7 cells; MCF7, 72 h): 15 % Cells and 15.5 % Cells; solubility at 72 h [4]: 33.1 ± 0.3 µg/mL (≈ 88.7 µM) |
